Test results from US20150224089A1, “COMBINATIONS OF IKKi/TBK1 INHIBITORS WITH BETA ADRENERGIC AGONISTS OR SYMPATHETIC NERVOUS SYSTEM ACTIVATORS” (THE REGENTS OF THE UNIVERSITY OF MICHIGAN, priority 2014, published 2015).

Assays:
[1] = test system: white adipose tissues from mice on a HFD; assay: Glycerol release from ex vivo epididymal and inguinal white adipose tissue; details: ex vivo 1 hr pretreatment with amlexanox, CL-316,243 treatment, more pronounced in inguinal depot
Description: (A) Fold increase in serum FFA (left panel) and glycerol (right panel) levels 15 min after CL-316,243 injection in ND- or HFD-fed mice treated with amlexanox or vehicle control for 4 days. (B) Glycerol release from ex vivo epididymal (left panel) and inguinal (right panel) WATs after 1 hr pretreatment with amlexanox or vehicle. CL-316,243 treatment was started at time zero. (C) Immunoblots in inguinal WAT lysates from FIG. 5B after 60 min of CL-316,243 treatment. (D) cAMP levels in epididymal WAT 20 min after CL-316,243 (CL) or saline control injection in HFD-fed mice treated with amlexanox or vehicle control for 4 days. (E) Immunoblots in epididymal WAT 5 min after CL-316,243 or saline control injection in HFD-fed mice treated with amlexanox or vehicle control for 4 days. (F) Relative oxygen comsumption of mice in each treatment group. […]

[2] = test system: epididymal adipose tissue; assay: cAMP levels in epididymal WAT after CL-316,243 injection in HFD-fed mice; format: in vivo; details: HFD mice pretreated with amlexanox 4 days; 20 min after CL-316,243 IP injection
Description: (§1) (A) Fold increase in serum FFA (left panel) and glycerol (right panel) levels 15 min after CL-316,243 injection in ND- or HFD-fed mice treated with amlexanox or vehicle control for 4 days. (B) Glycerol release from ex vivo epididymal (left panel) and inguinal (right panel) WATs after 1 hr pretreatment with amlexanox or vehicle. CL-316,243 treatment was started at time zero. (C) Immunoblots in inguinal WAT lysates from FIG. 5B after 60 min of CL-316,243 treatment. (D) cAMP levels in epididymal WAT 20 min after CL-316,243 (CL) or saline control injection in HFD-fed mice treated with amlexanox or vehicle control for 4 days. (E) Immunoblots in epididymal WAT 5 min after CL-316,243 or saline control injection in HFD-fed mice treated with amlexanox or vehicle control for 4 days. (F) Relative oxygen comsumption of mice in each treatment group.
(§2) To examine whether inhibition of TBK1 and IKKε with amlexanox reverses resistance to catecholamineinduced lipolysis in vivo by increasing stimulation of cAMP production, cAMP levels we measured in epididymal adipose tissue from mice on HFD after CL-316,243 IP injection. Levels of cAMP were increased after CL-316,243 IP injection in mice on HFD pretreated with amlexanox (FIG. 5D).

epididymal WAT = assay: Immunoblots (HSL phosphorylation) in epididymal WAT after CL-316,243 injection in HFD-fed mice; format: in vivo; details: HFD-fed mice pretreated with amlexanox 4 days; 5 min after CL-316,243 IP injection
Description: as §1, §2

3T3-L1 adipocytes = assay: Ucp1 gene expression in 3T3-L1 adipocytes; format: cell-based; details: long-term treatment with TNFα
Description: (A) Fold increase in Ucp1 expression in 3T3-L1 adipocytes expressing empty vector, Flag-IKKε, or Flag-IKKε K38A following treatment with or without 10 μM ISO (black bars) or 10 μM CL-316,243 (CL, gray bars) for 4 hr. (B) Glycerol release from 3T3-L1 adipocytes expressing empty vector (white bars), Flag-IKKε (black bars), or Flag-IKKε K38A (gray bars) treated with or without 10 μM ISO or 10 μM CL. (C) Immunoblots of whole cell lysates from FIG. 1B. Results were replicated in triplicate. D.E. stands for dark exposure and L.E. stands for light exposure. (D) Immunoblots of whole cell lysates from 3T3-L1 adipocytes expressing empty vector or Flag-IKKε treated with or without 50 μM FSK for 15 min. (E) cAMP levels from 3T3-L1 adipocytes expressing empty vector, Flag-IKKε, or Flag-IKKε K38A treated with or without 10 μM ISO or 50 μM FSK for 15 min.
Sympathetic activation of adipose tissue is involved in maintaining energy balance by stimulating lipolysis and fat oxidation (Coppack et al., 1994; Langin, 2006; Festuccia et al., 2011; herein incorporated by reference in their entireties). Activation of β-adrenergic signaling by either β-adrenergic agonists or cold exposure in white and brown adipose tissue initiates a cascade of events through cyclic AMP (cAMP), culminating in the transcriptional upregulation of Ucp1, which results in increased proton leak and energy expenditure (Himms-Hagen et al., 2000; Cao et al., 2004; Yehuda-Shnaidman et al., 2010; herein incorporated by reference in their entireties). […] This effect was further analyzed by overexpressing IKKε in 3T3-L1 adipocytes and examining Ucp1 gene expression after treatment with the non-selective β-adrenergic agonist, isoproterenol (ISO), or the β3-adrenergic agonist, CL-316,243. Fold difference in Ucp1 gene expression was calculated by normalization of relative Ucp1 mRNA levels in treated relative to control samples. […] The induction of Ucp1 gene expression in response to ISO or CL-316,243 was blunted when WT IKKε was overexpressed in these cells. […]

Question: Which results are given for `CC(C)c1ccc2oc3nc(N)c(C(=O)O)cc3c(=O)c2c1` [amlexanox, 2-amino-7-isopropyl-1-azaxanthone-3-carboxylic acid; 2-amino-7-isopropyl-5-oxo-5H-chromeno[2,3-b]pyridine-3-carboxylic acid]?
Answer: glycerol release from white adipose tissues [1]: enhanced glycerol release; cAMP levels in epididymal adipose tissue [2]: increased; HSL phosphorylation in epididymal WAT (epididymal WAT): increased

Question: How did the “induction of Ucp1 gene expression in response to β-adrenergic stimuli” value (3T3-L1 adipocytes) turn out when TNFα was run?
Answer: Its value is “repressed”.
